The source of these data is paper PMC6380468, “Investigations on small molecule inhibitors targeting the histone H3K4 tri-methyllysine binding PHD-finger of JmjC histone demethylases” (Bioorganic & Medicinal Chemistry, 2018).

Experiment [1] deals with T1, KDM5A_c2 (ΔARID/PHD1) (Homo sapiens, UniProt P29375).
T1 sequence (P29375 with tags, fused parts or gaps): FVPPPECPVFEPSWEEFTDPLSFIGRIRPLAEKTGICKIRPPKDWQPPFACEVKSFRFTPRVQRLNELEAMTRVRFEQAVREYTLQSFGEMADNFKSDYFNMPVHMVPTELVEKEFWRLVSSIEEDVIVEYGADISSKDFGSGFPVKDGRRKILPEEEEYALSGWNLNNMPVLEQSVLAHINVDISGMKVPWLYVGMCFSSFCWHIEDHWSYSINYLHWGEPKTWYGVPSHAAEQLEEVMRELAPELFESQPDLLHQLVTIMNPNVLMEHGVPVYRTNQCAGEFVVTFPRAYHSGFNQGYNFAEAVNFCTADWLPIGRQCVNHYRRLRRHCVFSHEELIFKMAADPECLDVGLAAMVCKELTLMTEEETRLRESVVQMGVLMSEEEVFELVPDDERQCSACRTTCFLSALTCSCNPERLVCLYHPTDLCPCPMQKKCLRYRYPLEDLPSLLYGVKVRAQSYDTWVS
The experiment can be described thus: MALDI-TOF MS H3K4me3 demethylation assay, KDM5A_c2. Format: biochemical. As to conditions: average ± StdDev of n = 2, read-out: IC50, inhibition of H3K4me3 demethylation activity, KDM5A_c2. The method, then:
Two catalytically active constructs of KDM5A were employed, KDM5A_c1 (M1-L801) and KDM5A_c2 (ΔARID/PHD1, P13-S744 with L88-G353 (ARID/PHD1) replaced with a GGGG linker) and both KDM5A_c1 and KDM5A_c2 constructs lack the PHD2 and PHD3. […] A MALDI-TOF MS assay was used to measure the activity of H3K4me3 demethylation in the presence of inhibitors (Table 2, Fig. 3C and D).
The KDM5A mixture (5 µL, KDM5A-c1: 1.0 µM or KDM5A-c2: 0.5 µM) was pre-incubated with 100 nL inhibitors (in DMSO) for 10 min. […] The mixture was quenched using formic acid (5 µL, 1 v/v% in MQ) after 4 minutes (KDM5A-c1) or 3 minutes (KDM5A-c2). The stopped reaction (1 µL) was mixed with […] (CHCA) MALDI matrix (saturated solution in TFA (0.1%) in MilliQ water and trifluoroacetic acid (0.1%) acetonitrile (1:1)) at 1:1 ratio (2 µL), air dried and analysed using Bruker microflex MALDI-TOF controlled with FlexControl. The data were further processed using FlexAnalysis and excel.

For experiment [2], the target named is T2, KDM5A_c2 (Homo sapiens, UniProt P29375).
T2 sequence (P29375 with tags, fused parts or gaps): T1 sequence (P29375 with tags, fused parts or gaps)
Nature of the experiment: Formaldehyde dehydrogenase (FDH) enzyme-coupled fluorescence assay, kinetic analysis. Format: biochemical. How it is done: Enzyme mixture (25 µL) containing KDM5A-c2 (0.5 µM) and FDH (2.0 µM) in FDH buffer [50mM HEPES (50 mM), Tween20 (0.1%), NaCl (50 mM), pH 7.5 in MQ)] was prepared and aliquoted in a 384-well flat-bottom microplate (µClear, Greiner). The peptide mixture (25 µL) [ascorbate (2 mM), (NH4)2Fe(II)(SO4)2 (100 µM), 2OG (400 µM), H3(1-21)K4me3 peptide (ranging from 0 to 100 µM), β-NAD (500 µM), 2a (0 to 160 µM, in DMSO (2% final in this solution)) in FDH buffer] was added to initiate the reaction and the fluorescence was monitored (every 30 seconds over 25 min at 25.0 °C) using the PHERAstar (BMG LABTECH). The initial rates at each peptide concentrations were used to generate the Michaelis-Menten plots. Combined datasets from two independent experiments were globally fitted to a mixed inhibition model using Prism Ver 7.01, and Ki and α values were determined. Lineweaver-Burk plots were also generated using Prism Ver 7.01

Where [3] appears, read: KDM5A_c2, mixed inhibition model, with respect to H3K4me3 substrate, N=2.

Broadly, the IC50 is the concentration needed to halve the response being measured. As to `CCCCc1oc2ccccc2c1C(=O)c1ccc(OCCCN(C)C)cc1` [Compound 1a, (2-Butylbenzofuran-3-yl)(4-(3-(dimethylamino)propoxy)phenyl)methanone], the IC50 in experiment [1] is over 1000 µM.
As usually defined, the Ki is a measure of affinity in units of concentration, obtained from inhibition or displacement. A lower Ki goes with higher affinity. Regarding `CCCCc1oc2ccccc2c1C(=O)c1ccc(OCCC[N+](C)(C)C)cc1.[I-]` [Compound 2a, 3-(4-(2-Butylbenzofuran-3-carbonyl)phenoxy)-N,N,N-trimethylpropan-1-aminium iodide], in experiment [1], the IC50 was determined as 37 ± 14 µM. Also, the “substrate of KDM5A_c2 (formaldehyde production in the absence of H3K4me3)” value in experiment [2] (FDH coupled assay, no H3K4me3) was “not a substrate”. In addition, the “mode of inhibition with respect to H3K4me3” value in experiment [2] (KDM5A_c2, Lineweaver-Burk plots) was “non-competitive”. In addition, in experiment [2] (setting [3]), the affinity corresponds to a Ki of 74 ± 28 µM and the α came to 1.64 ± 0.85.
